Values after ≈ are worked out from the molar mass of the structure shown.
How the values were obtained:
[1] = Half life in rabbit at 5 mg/kg, iv; format: ADME, organism-based, Oryctolagus cuniculus; conditions: in vivo
[2] = Oral bioavailability in Wistar rat at 100 mg/kg; format: ADME, organism-based; conditions: in vivo
[3] = biological target: T1, Retinoic acid receptor RXR-alpha (Homo sapiens, UniProt P19793); test: Agonist activity at GAL4-fused RXR LBD (unknown origin) expressed in HEK293T cells incubated for 24 by BrightGlo reagent based assay; format: cell-based
T1 sequence (P19793 whole entry): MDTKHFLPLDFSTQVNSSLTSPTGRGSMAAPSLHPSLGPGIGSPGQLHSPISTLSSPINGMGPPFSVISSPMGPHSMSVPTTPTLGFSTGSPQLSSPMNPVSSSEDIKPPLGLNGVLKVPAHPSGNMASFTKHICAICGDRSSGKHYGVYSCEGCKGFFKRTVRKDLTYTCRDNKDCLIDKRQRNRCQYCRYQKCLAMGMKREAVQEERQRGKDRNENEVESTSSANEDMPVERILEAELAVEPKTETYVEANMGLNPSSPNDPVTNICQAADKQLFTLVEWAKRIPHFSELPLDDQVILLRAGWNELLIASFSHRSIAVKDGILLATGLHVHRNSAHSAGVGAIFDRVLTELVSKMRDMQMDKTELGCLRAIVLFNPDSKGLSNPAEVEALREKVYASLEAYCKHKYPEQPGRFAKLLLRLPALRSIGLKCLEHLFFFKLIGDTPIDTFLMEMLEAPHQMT

[4] = Oral bioavailability in Wistar rat at 300 mg/kg; format: ADME, organism-based; conditions: in vivo
[5] = Cmax in Wistar rat at 10 mg/kg, po; format: ADME, organism-based; parameters: dose 10 mg/kg, route oral; conditions: in vivo
[6] = Oral bioavailability in Wistar rat at 3 mg/kg; format: ADME, organism-based; conditions: in vivo
Rattus norvegicus [7] = test: In-vivo agonist activity at FXR in Han Wistar rat assessed as upregulation of FGF15 mRNA level in ileum at 1.5 mg/kg administered via oral gavage once daily for 14 days measured 10 hrs post last dose by qRT-PCR analysis relative to control; format: functional
[8] = Clearance in Wistar rat at 3 mg/kg, iv; format: ADME, organism-based; conditions: in vivo
[9] = AUC in Wistar rat at 300 mg/kg, po; format: ADME, organism-based; conditions: in vivo
Estrogen receptor = biological target: T2, Estrogen receptor (Homo sapiens, UniProt P03372); test: Agonist activity at ERalpha (unknown origin) incubated for 2 hrs by TR-FRET assay
T2 sequence (P03372 whole entry): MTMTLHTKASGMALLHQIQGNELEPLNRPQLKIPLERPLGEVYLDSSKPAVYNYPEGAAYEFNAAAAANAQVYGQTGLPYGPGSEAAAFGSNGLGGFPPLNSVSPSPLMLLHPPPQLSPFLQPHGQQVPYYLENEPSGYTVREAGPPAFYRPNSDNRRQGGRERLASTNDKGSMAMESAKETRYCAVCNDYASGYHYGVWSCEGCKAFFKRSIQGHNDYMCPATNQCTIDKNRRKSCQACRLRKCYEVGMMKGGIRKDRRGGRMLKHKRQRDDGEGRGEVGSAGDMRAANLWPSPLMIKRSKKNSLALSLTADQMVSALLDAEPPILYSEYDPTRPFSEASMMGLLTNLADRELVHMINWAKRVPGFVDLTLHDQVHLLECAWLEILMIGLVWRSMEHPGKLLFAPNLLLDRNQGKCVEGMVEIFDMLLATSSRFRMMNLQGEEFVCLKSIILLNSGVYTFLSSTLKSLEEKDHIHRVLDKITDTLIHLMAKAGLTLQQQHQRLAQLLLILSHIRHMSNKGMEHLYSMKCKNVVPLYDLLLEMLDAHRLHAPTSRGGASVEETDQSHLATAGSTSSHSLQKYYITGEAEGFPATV

[10] = Lipophilicity, logD of compound at pH 6.8; format: physicochemical; conditions: buffer
[11] = Oral bioavailability in mouse at 10 mg/kg; format: ADME, organism-based; conditions: in vivo
[12] = Half life in dog at 0.5 mg/kg, iv; format: ADME, organism-based, Canis lupus familiaris; conditions: in vivo
[13] = Oral bioavailability in Wistar rat at 10 mg/kg in presence of PEG 300/D5W(3:1); format: ADME, organism-based; conditions: in vivo
[14] = Oral bioavailability in dog at 2 mg/kg; format: ADME, organism-based, Canis lupus familiaris; conditions: in vivo
[15] = AUC in Wistar rat brain at 10 mg/kg, po; format: ADME, organism-based
Rattus norvegicus [16] = test: In-vivo agonist activity at FXR in orally dosed Han Wistar rat assessed as upregulation of FGF15 mRNA level in ileum administered via oral gavage once daily for 14 days measured post last dose by qRT-PCR analysis; format: functional, organism-based
[17] = Half life in mouse at 3 mg/kg, iv; format: ADME, organism-based; conditions: in vivo
[18] = Clearance in mouse at 3 mg/kg, iv; format: ADME, organism-based; conditions: in vivo
Progesterone receptor = biological target: T3, Progesterone receptor (Homo sapiens, UniProt P06401); test: Agonist activity at Progesterone receptor (unknown origin) incubated for 2 hrs by TR-FRET assay
T3 sequence (P06401 whole entry): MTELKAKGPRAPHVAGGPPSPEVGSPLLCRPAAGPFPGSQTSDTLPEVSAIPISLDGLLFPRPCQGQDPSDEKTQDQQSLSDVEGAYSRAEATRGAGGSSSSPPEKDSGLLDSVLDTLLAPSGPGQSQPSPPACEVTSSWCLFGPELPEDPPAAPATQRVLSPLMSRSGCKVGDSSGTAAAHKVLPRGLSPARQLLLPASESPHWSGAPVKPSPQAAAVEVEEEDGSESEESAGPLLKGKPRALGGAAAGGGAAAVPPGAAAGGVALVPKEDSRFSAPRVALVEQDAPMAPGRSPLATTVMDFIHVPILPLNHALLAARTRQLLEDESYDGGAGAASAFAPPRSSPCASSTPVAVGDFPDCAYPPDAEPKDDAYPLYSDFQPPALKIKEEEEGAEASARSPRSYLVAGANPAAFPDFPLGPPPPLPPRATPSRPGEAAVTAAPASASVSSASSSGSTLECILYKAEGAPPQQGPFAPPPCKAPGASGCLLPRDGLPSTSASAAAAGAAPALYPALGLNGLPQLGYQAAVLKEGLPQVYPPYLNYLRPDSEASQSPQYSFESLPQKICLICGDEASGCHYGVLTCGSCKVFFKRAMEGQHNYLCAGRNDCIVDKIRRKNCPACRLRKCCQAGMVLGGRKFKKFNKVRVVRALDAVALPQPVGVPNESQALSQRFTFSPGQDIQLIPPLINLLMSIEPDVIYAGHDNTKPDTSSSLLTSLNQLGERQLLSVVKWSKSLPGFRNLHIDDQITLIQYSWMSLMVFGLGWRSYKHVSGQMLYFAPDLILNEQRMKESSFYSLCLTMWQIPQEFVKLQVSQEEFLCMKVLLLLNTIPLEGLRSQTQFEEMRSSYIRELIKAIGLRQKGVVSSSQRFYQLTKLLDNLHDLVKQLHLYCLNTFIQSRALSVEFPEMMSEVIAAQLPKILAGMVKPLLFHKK

[19] = Half life in Wistar rat at 3 mg/kg, po; format: ADME, organism-based; conditions: in vivo
[20] = Solubility of compound in pH 6.5 FASSIF at 2 mg measured for 5 to 60 mins by UV spectroscopic method; format: physicochemical
Mus musculus = test: Anti Steato-hepatitic activity in STZ/HFD induced oral dosed C57BL/6J mouse STAM model assessed as reduction in hepatocellular ballooning administered via oral gavage once daily for 3 weeks and measured on 9 week by H and E staining based assay; format: functional, organism-based

half-life [1]: 4.4 h | bioavailability [2]: 82% | EC50 [3]: > 10 µM | bioavailability [4]: 72% | Cmax [5]: 12.4 µM | bioavailability [6]: 63% | clearance [8]: 0.42 L/h/kg | AUC [9]: 1040 µM·h | EC50 (Estrogen receptor): > 30 µM | logD [10]: 2.7 | bioavailability [11]: 115% | half-life [12]: 6.8 h | bioavailability [13]: 51% | bioavailability [14]: 80% | AUC [15]: 1.11 µM·h | half-life [17]: 4.5 h | clearance [18]: 0.588 L/h/kg | EC50 (Progesterone receptor): > 30 µM | half-life [19]: 3.9 h | solubility [20]: 3 µM (≈ 1.46 µg/mL)
Structure (SMILES): Cn1nc(C(=O)N(Cc2ccccc2)Cc2ccc(C(=O)O)cc2)c2c1-c1cc(Cl)ccc1OC2 [NIDUFEXOR]
fold change (FC) (Rattus norvegicus [7]): 30 | Activity (Rattus norvegicus [16]): Dose-dependent effect | Activity (Mus musculus): Dose-dependent effect
